Drawing on PubChem BioAssay AID256 (DTP/NCI, 2004), this text covers T/C for 23 compounds.

“And” between values parts separate entries of the source, which are not always exact repeats. Equal entries are not always repeated. Toxic doses and inconclusive results are not listed.

This assay concerns CD2F1 mice, L1210 leukemia ip, survival T/C. Put plainly: NCI In Vivo Anticancer Drug Screen. Data for tumor model L1210 Leukemia (intraperitoneal) in CD2F1 (CDF1) mice. Conditions: higher = longer survival. The method, boiled down: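 Vehicle-treated tumor-bearing mice served as controls (C) for compound-treated mice (T). Reported figure is T divided by C.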
Setting [1] is: endpoint: mean survival time, dose: 50.0 mg/kg/injection, schedule: Q04DX002 (ip), vehicle: saline with Tween-80.
The mark [2] stands for this setting: endpoint: mean survival time, dose: 100.0 mg/kg/injection, schedule: Q04DX002 (ip), vehicle: saline with Tween-80.
Setting [3] is: endpoint: mean survival time, dose: 100.0 mg/kg/injection, schedule: Q04DX003 (ip), vehicle: saline with Tween-80.
[4] abbreviates: endpoint: mean survival time, dose: 200.0 mg/kg/injection, schedule: Q04DX003 (ip), vehicle: saline with Tween-80.
The mark [5] stands for this setting: endpoint: mean survival time, dose: 400.0 mg/kg/injection, schedule: Q04DX003 (ip), vehicle: saline with Tween-80.
Where [6] appears, read: endpoint: mean survival time, dose: 100.0 mg/kg/injection, schedule: Q01DX009 (ip), vehicle: saline with Tween-80.
Where [7] appears, read: endpoint: mean survival time, dose: 200.0 mg/kg/injection, schedule: Q01DX009 (ip), vehicle: saline with Tween-80.
Where [8] appears, read: endpoint: mean survival time, dose: 400.0 mg/kg/injection, schedule: Q01DX009 (ip), vehicle: saline with Tween-80.
The mark [9] stands for this setting: endpoint: mean survival time, dose: 25.0 mg/kg/injection, schedule: Q04DX002 (ip), vehicle: saline with Tween-80.

As for `CC1(C)OCC2OC=CC(=O)C2O1` (stereo unspecified), the T/C reads like this: (endpoint: median survival time, dose: 25.0 mg/kg/injection, schedule: Q01DX009 (ip), vehicle: suspension in saline) 94 % of control; (endpoint: median survival time, dose: 50.0 mg/kg/injection, schedule: Q01DX009 (ip), vehicle: suspension in saline) 103 % of control; (endpoint: median survival time, dose: 100.0 mg/kg/injection, schedule: Q01DX009 (ip), vehicle: suspension in saline) 101 % of control; (endpoint: median survival time, dose: 200.0 mg/kg/injection, schedule: Q01DX009 (ip), vehicle: suspension in saline) 97 % of control; (endpoint: median survival time, dose: 400.0 mg/kg/injection, schedule: Q01DX009 (ip), vehicle: suspension in saline) 104 % of control.

For the compound `CO[C@@]12[C@@H]3N[C@@H]3CN1C1=C(C(=O)C(NCCc3ccc(O)cc3)=C(C)C1=O)[C@@H]2COC(N)=O`, the T/C runs as follows: (endpoint: mean survival time, dose: 1.5 mg/kg/injection, schedule: Q01DX001 (ip), vehicle: water) 102 % of control; (endpoint: mean survival time, dose: 3.0 mg/kg/injection, schedule: Q01DX001 (ip), vehicle: water) 104 % of control and 111 % of control; (endpoint: mean survival time, dose: 6.0 mg/kg/injection, schedule: Q01DX001 (ip), vehicle: water) 111 % of control; (endpoint: mean survival time, dose: 12.0 mg/kg/injection, schedule: Q01DX001 (ip), vehicle: water) 115 % of control; (endpoint: mean survival time, dose: 48.0 mg/kg/injection, schedule: Q01DX001 (ip), vehicle: water) 151 % of control.

As for `C=C1C2C(c3ccccc3)=CC(C1(C)C(Cl)Cl)C(C#N)(C#N)C2(C#N)C#N` (stereo unspecified), the T/C is 96 % of control under setting [1]; 108 % of control under setting [2]; 100 % of control (endpoint: mean survival time, dose: 200.0 mg/kg/injection, schedule: Q04DX002 (ip), vehicle: saline with Tween-80).

For the compound `Nc1ccccc1CO`, the T/C was 100 % of control under setting [3], 95 % of control under setting [4] and 95 % of control under setting [5].

Regarding `O=C(/C=C/c1ccccc1)NC(=S)NCc1ccccc1`, the T/C reads like this: (endpoint: mean survival time, dose: 100.0 mg/kg/injection, schedule: Q01DX001 (ip), vehicle: saline with Tween-80) 91 % of control; under setting [6], 97 % of control and 100 % of control; under setting [2], 89 % of control and 94 % of control and 98 % of control; (endpoint: mean survival time, dose: 200.0 mg/kg/injection, schedule: Q01DX001 (ip), vehicle: saline with Tween-80) 88 % of control; under setting [7], 94 % of control and 104 % of control; (endpoint: mean survival time, dose: 400.0 mg/kg/injection, schedule: Q01DX001 (ip), vehicle: saline with Tween-80) 91 % of control. Besides, the T/C under setting [8] was 101 % of control and 105 % of control.

With `CCOC(OCC)c1nc(N)[nH]c(=O)c1CCCCc1ccccc1`, the T/C under setting [3] is 87 % of control, the T/C under setting [4] was 87 % of control and the T/C under setting [5] is 95 % of control.

With `c1ccc(-c2cc(-c3ccccc3)n(-c3ccccc3)c2-c2ccccc2)cc1`, the T/C reads like this: under setting [6], 88 % of control; under setting [7], 94 % of control; under setting [8], 88 % of control.

Take `OC(CC1=NNC(=S)NC1)(C(F)(F)F)C(F)(F)F`: the T/C runs as follows: (endpoint: mean survival time, dose: 50.0 mg/kg/injection, schedule: Q01DX009 (ip), vehicle: saline with Tween-80) 94 % of control; under setting [6], 89 % of control.

For `O=C(Nc1ccc2c3c(ccc(C(=O)Nc4ccccc4)c13)CC2)c1ccccc1`, the T/C reads like this: under setting [3], 100 % of control; under setting [4], 100 % of control; under setting [5], 92 % of control.

As to `ClC=P(c1ccccc1)(c1ccccc1)c1ccccc1`, the T/C reads like this: under setting [6], 96 % of control; under setting [7], 92 % of control.

With `CC(=O)Nc1c(Br)cc2c(c1Br)Cc1cc(N(CCO)CCO)ccc1-2`, the T/C runs as follows: (endpoint: mean survival time, dose: 50.0 mg/kg/injection, schedule: Q01DX001 (ip), vehicle: carboxymethylcellulose (CMC)) 102 % of control; (endpoint: mean survival time, dose: 100.0 mg/kg/injection, schedule: Q01DX001 (ip), vehicle: carboxymethylcellulose (CMC)) 102 % of control; (endpoint: mean survival time, dose: 200.0 mg/kg/injection, schedule: Q01DX001 (ip), vehicle: carboxymethylcellulose (CMC)) 104 % of control; (endpoint: mean survival time, dose: 400.0 mg/kg/injection, schedule: Q01DX001 (ip), vehicle: carboxymethylcellulose (CMC)) 98 % of control.

On to `CC(=O)N(C)N=Nc1ccc(C)cc1`, for which the T/C is 114 % of control (endpoint: mean survival time, dose: 88.0 mg/kg/injection, schedule: Q04DX003 (ip), vehicle: other) and 121 % of control (endpoint: mean survival time, dose: 200.0 mg/kg/injection, schedule: Q04DX003 (ip), vehicle: other).

Regarding `[N-]=C=S.[N-]=C=S.[NH-]N.[NH-]N.[Zn]`, the T/C was 96 % of control under setting [9], 100 % of control under setting [1] and 102 % of control under setting [2].

Take `COc1ccc(C(=O)CC(=O)Nc2ccc([N+](=O)[O-])cc2)cc1`: the T/C by setting is: (endpoint: mean survival time, dose: 100.0 mg/kg/injection, schedule: Q01DX009 (ip), vehicle: Klucel (hydroxypropylcellulose) (HPC)) 98 % of control; under setting [3], 107 % of control; (endpoint: mean survival time, dose: 200.0 mg/kg/injection, schedule: Q01DX009 (ip), vehicle: Klucel (hydroxypropylcellulose) (HPC)) 97 % of control; under setting [4], 102 % of control; (endpoint: mean survival time, dose: 400.0 mg/kg/injection, schedule: Q01DX009 (ip), vehicle: Klucel (hydroxypropylcellulose) (HPC)) 97 % of control; under setting [5], 101 % of control.

On to `C=CC/C(C)=C/C=C/C(C)C(=O)O` (stereo unspecified), for which the T/C under setting [6] is 100 % of control; the T/C under setting [3] is 98 % of control; the T/C under setting [7] was 94 % of control; the T/C under setting [4] was 93 % of control; the T/C under setting [8] was 104 % of control; the T/C under setting [5] is 95 % of control.

With `CCCCC(CCC)(CCN)CCCC`, the T/C is 106 % of control (endpoint: mean survival time, dose: 3.0 mg/kg/injection, schedule: Q01DX009 (ip), vehicle: saline); 98 % of control (endpoint: mean survival time, dose: 6.0 mg/kg/injection, schedule: Q01DX009 (ip), vehicle: saline); 104 % of control (endpoint: mean survival time, dose: 12.0 mg/kg/injection, schedule: Q01DX009 (ip), vehicle: saline); 103 % of control (endpoint: mean survival time, dose: 12.5 mg/kg/injection, schedule: Q04DX003 (ip), vehicle: saline).

On to `CCC1(C)C(C#N)C(=O)NC(=O)C1C#N` (stereo unspecified), for which the T/C (endpoint: mean survival time, dose: 50.0 mg/kg/injection, schedule: Q01DX009 (ip), vehicle: saline sonified) is 96 % of control; the T/C (endpoint: mean survival time, dose: 100.0 mg/kg/injection, schedule: Q01DX009 (ip), vehicle: saline sonified) was 90 % of control; the T/C under setting [3] was 100 % of control; the T/C under setting [4] is 100 % of control.

For `O=[N+]([O-])c1cc2c(c([N+](=O)[O-])c1)OCOC2`, the T/C runs as follows: under setting [6], 105 % of control; under setting [7], 96 % of control.

Take `Cc1ncc([N+](=O)[O-])n1CCO`: the T/C is, setting by setting: (endpoint: mean survival time, dose: 37.5 mg/kg/injection, schedule: Q01DX009 (ip), vehicle: Klucel (hydroxypropylcellulose) (HPC)) 109 % of control; (endpoint: mean survival time, dose: 37.5 mg/kg/injection, schedule: Q04DX003 (ip), vehicle: Klucel (hydroxypropylcellulose) (HPC)) 98 % of control; (endpoint: mean survival time, dose: 75.0 mg/kg/injection, schedule: Q01DX009 (ip), vehicle: Klucel (hydroxypropylcellulose) (HPC)) 104 % of control; (endpoint: mean survival time, dose: 75.0 mg/kg/injection, schedule: Q04DX003 (ip), vehicle: Klucel (hydroxypropylcellulose) (HPC)) 103 % of control; (endpoint: mean survival time, dose: 150.0 mg/kg/injection, schedule: Q01DX009 (ip), vehicle: Klucel (hydroxypropylcellulose) (HPC)) 103 % of control; (endpoint: mean survival time, dose: 150.0 mg/kg/injection, schedule: Q04DX003 (ip), vehicle: Klucel (hydroxypropylcellulose) (HPC)) 104 % of control. The T/C reads like this: (endpoint: mean survival time, dose: 300.0 mg/kg/injection, schedule: Q01DX009 (ip), vehicle: Klucel (hydroxypropylcellulose) (HPC)) 107 % of control; (endpoint: mean survival time, dose: 300.0 mg/kg/injection, schedule: Q04DX003 (ip), vehicle: Klucel (hydroxypropylcellulose) (HPC)) 97 % of control; (endpoint: mean survival time, dose: 600.0 mg/kg/injection, schedule: Q01DX009 (ip), vehicle: Klucel (hydroxypropylcellulose) (HPC)) 92 % of control; (endpoint: mean survival time, dose: 600.0 mg/kg/injection, schedule: Q04DX003 (ip), vehicle: Klucel (hydroxypropylcellulose) (HPC)) 98 % of control.

On to `CN(C)C(=O)Nc1cccc(OS(=O)(=O)N(C)C)c1`, for which the T/C by setting is: under setting [3], 99 % of control; under setting [4], 96 % of control.

On to `CC(=O)N(Cc1ccccn1)N=O`, for which the T/C is, setting by setting: (endpoint: mean survival time, dose: 75.0 mg/kg/injection, schedule: Q01DX001 (ip), vehicle: water) 112 % of control; (endpoint: mean survival time, dose: 150.0 mg/kg/injection, schedule: Q01DX001 (ip), vehicle: water) 122 % of control.

Regarding `CC(C)(CNC1CCCCC1)OC(=O)c1ccccc1`, the T/C is 105 % of control (endpoint: mean survival time, dose: 75.0 mg/kg/injection, schedule: Q01DX001 (ip), vehicle: saline) and 100 % of control (endpoint: mean survival time, dose: 150.0 mg/kg/injection, schedule: Q01DX001 (ip), vehicle: saline).

For the compound `O.[Co].[NH2-].[NH2-].[NH2-].[NH2-].[NH2-]`, the T/C is 93 % of control under setting [9]; 90 % of control under setting [2]; 98 % of control (endpoint: mean survival time, dose: 100.0 mg/kg/injection, schedule: Q04DX002 (ip), vehicle: saline).
